Experimental data from patent publication US20080139664A1, “ANTI-GLYCATION AGENTS FOR PREVENTING AGE-, DIABETES-, AND SMOKING-RELATED COMPLICATIONS” (NATIONAL RESEARCH COUNCIL OF CANADA, priority 2001, published 2008).
pIC50: −log10 of the molar value. Where a name gives a salt, the structure may show the parent alone. Read-outs that look alike come from different tables or passages of the source.

Columns and labels:
[1] = test system: bovine serum albumin (BSA); test: Maillard fluorescence-based assay of AGEs formation, IC50 determination (BSA + D-ribose); conditions: for pIC50: inhibition of Maillard fluorescence development, 0.075 mM BSA, 50 mM D-ribose, 37° C., 5 days
[2] = test system: bovine serum albumin (BSA)
lysozyme = test: ESI-MS of lysozyme glycoforms after incubation with D-ribose; conditions: 37° C., 5 days; for Peak area as % of total area of all glycoforms, 14,569: lysozyme + 2D-ribose − 2H2O (14,569 Da); for Peak area as % of total area of all glycoforms, 14,551: lysozyme + 2D-ribose − 3H2O (14,551 Da); for Peak area as % of total area of all glycoforms, 14,533: lysozyme + 2D-ribose − 5H2O (14,533 Da); for Peak area as % of total area of all glycoforms, 14,515: lysozyme + 2D-ribose − 6H2O (14,515 Da); for Peak area as % of total area of all glycoforms, 14,419: lysozyme + D-ribose − 2H2O (14,419 Da); for Peak area as % of total area of all glycoforms, 14,401: lysozyme + D-ribose − 3H2O (14,401 Da); for Peak area as % of total area of all glycoforms, 14,437: lysozyme + D-ribose − H2O (14,437 Da); for Peak area as % of total area of all glycoforms, 14,496: lysozyme + D-ribose − H2O with one carboxymethylated Lys residue (14,496 Da); for Peak area as % of total area of all glycoforms, 14,364: lysozyme with one carboxymethylated Lys residue (14,364 Da); for Peak area as % of total area of all glycoforms, 14,305: unmodified lysozyme (14,305 Da);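 on all read-outs here: lysozyme incubated with D-ribose, with or without anti-glycation agents, then separated by reversed-phase HPLC and analysed by electrospray mass spectrometry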
Protocol: The effect of anti-glycation agents on the accumulation of glycated forms (glycoforms) of protein was evaluated by using electrospray mass spectrometry (ESI-MS). As the molecular mass of BSA was too large to monitor the small mass changes of its glycoforms, lysozyme was incubated with D-ribose and anti-glycants. Lysozyme and its glycoforms were isolated by RP-HPLC and analyzed by mass spectrometry.
Samples of lysozyme (0.756 mM; 4.54 mM of Lys residues) and D-ribose (50 mM) were incubated in the presence and absence of the selected anti-glycation agents at 37° C. for 5 days and subjected to electrospray mass spectrometry (ESI-MS) in order to characterize the protein intermediates as well as carboxymethylated lysozyme. Prior to MS measurements, the proteins were isolated by reversed phase-HPLC and were semi-dried by freeze drying.

O=c1cc(-c2ccc(O)c(O)c2)oc2ccccc12 [3′.4′-Dihydroxyflavone]
pIC50 [1]: 2.59

NCCc1cc(O)c(O)cc1O [6-Hydroxydopamine]
maximum percentage of the inhibition ([1]; Maillard fluorescence, listed if significantly lower than 100%): 65%) | pIC50 [1]: 4.02

O=[N+]([O-])c1cccc(SSc2cccc([N+](=O)[O-])c2)c1 [Nitrophenide]
pIC50 [2]: 2.40

Cn1c([N+](=O)[O-])cnc1COC(N)=O [Ronidazole]
pIC50 [1]: 3.02

CN1C(C(=O)Nc2ccccn2)=C(O)c2ccccc2S1(=O)=O [Piroxicam]
pIC50 [2]: 3.14

COc1ccc(-c2cc(=O)c3c(O)cc(O)cc3o2)cc1 [Acacetin]
pIC50 [1]: 3.29

O=C1CN(/N=C/c2ccc([N+](=O)[O-])o2)C(=O)N1 [Nitrofurantoin]
pIC50 [2]: 4.36 | maximum percentage of the inhibition [2]: 40%)

CC(CCc1ccccc1)NCC(=O)c1ccc(O)c(O)c1 (stereo not drawn) [α-(1-Methyl-3-phenyl-propylamino)-3,4-dihydroxyacetophenone hydrochloride]
pIC50 [1]: 3.05

COC(=O)c1ccc(O)c(N)c1 [Orthoform]
pIC50 [2]: 2.68

COc1ccc2c(c1)c(CC(=O)O)c(C)n2C(=O)c1ccc(Cl)cc1 [Indomethacin]
Peak area as % of total area of all glycoforms, 14,569 (lysozyme): 3.5% | Peak area as % of total area of all glycoforms, 14,551 (lysozyme): 3.3% | Peak area as % of total area of all glycoforms, 14,533 (lysozyme): 1.6% | Peak area as % of total area of all glycoforms, 14,515 (lysozyme): 0.0% | Peak area as % of total area of all glycoforms, 14,419 (lysozyme): 7.5% | Peak area as % of total area of all glycoforms, 14,401 (lysozyme): 0.5% | Peak area as % of total area of all glycoforms, 14,437 (lysozyme): 18.6% | Peak area as % of total area of all glycoforms, 14,496 (lysozyme): 0.0% | Peak area as % of total area of all glycoforms, 14,364 (lysozyme): 5.1% | Peak area as % of total area of all glycoforms, 14,305 (lysozyme): 58.0%

O=C1c2c(O)cc(O)cc2O[C@H](c2ccc(O)c(O)c2)[C@H]1O [Taxifolin]
pIC50 [1]: 4.00

CC(NCCc1ccc(O)cc1)C(O)c1ccc(O)cc1 (centres unmarked) [Ritodrine]
pIC50 [2]: < 2.40

O=C(Cn1ccnc1[N+](=O)[O-])NCCO [Etanidazole]
pIC50 [2]: 3.35

C[C@H]1c2cccc(O)c2C(=O)C2=C(O)[C@]3(O)C(=O)C(C(N)=O)=C(O)[C@@H](N(C)C)[C@@H]3[C@@H](O)[C@@H]21 [Doxycycline]
pIC50 [2]: 4.48

Nc1c(Cl)cc([N+](=O)[O-])cc1Cl [Botran]
pIC50 [2]: < 2.40

CC(C(O)c1ccc(O)cc1)N1CCC(Cc2ccccc2)CC1 (centres unmarked) [Ifenprodil]
pIC50 [2]: < 2.40

CO[C@H]1/C=C/O[C@@]2(C)Oc3c(C)c(O)c4c(O)c(c(/C=N/N5CCN(C)CC5)c(O)c4c3C2=O)NC(=O)/C(C)=C\C=C\[C@H](C)[C@H](O)[C@@H](C)[C@@H](O)[C@@H](C)[C@H](OC(C)=O)[C@@H]1C [Rifampicin]
pIC50 [2]: 3.92

O=c1cc(-c2ccc(O)cc2)oc2cc(O)cc(O)c12 [Apigenin]
pIC50 [2]: 3.89

N[C@@H](Cc1cc(I)c(O)c(I)c1)C(=O)O [3,5-Diiodo-L-tyrosine]
pIC50 [1]: 2.82

Oc1ccc(Cl)c2cccnc12 [Cloxiquine]
pIC50 [1]: 3.36

COc1cc(C2Oc3cc([C@H]4Oc5cc(O)cc(O)c5C(=O)[C@@H]4O)ccc3OC2CO)ccc1O (some centres unmarked) [Silibinin]
pIC50 [2]: 3.12

COc1ccc(O)c(C(C)(C)C)c1 [BHA]
pIC50 [1]: < 2.40

CNC(=C[N+](=O)[O-])NCCSCc1ccc(CN(C)C)o1 [Ranitidine]
pIC50 [2]: 2.96

O=c1cc(-c2ccccc2)oc2cc(O)cc(O)c12 [Chrysin]
pIC50 [2]: 2.68

Cc1ncc([N+](=O)[O-])n1C [Dimetridazole]
pIC50 [2]: 3.34

Cn1cnc([N+](=O)[O-])c1Sc1ncnc2nc[nH]c12 [Azathioprine]
pIC50 [2]: 3.40

CCCCCCCCCCCCCCCC(=O)OC[C@@H](NC(=O)C(Cl)Cl)[C@H](O)c1ccc([N+](=O)[O-])cc1 [Chloramphenicol palmitate]
pIC50 [1]: < 2.40

CC(C)C(=O)Nc1ccc([N+](=O)[O-])c(C(F)(F)F)c1 [Flutamide]
pIC50 [2]: 2.89

Cc1ncc([N+](=O)[O-])n1CCO [Metronidazole]
pIC50 [2]: 3.18

CNCC(O)c1ccc(O)cc1 (centres unmarked) [Synephrine]
pIC50 [2]: < 2.40

NC(=O)NO [Hydroxyurea]
pIC50 [2]: < 2.40

Nc1ccc(C(=O)O)c(O)c1 [4-Amino-salicylic acid]
pIC50 [1]: < 2.40

O=C(N[C@H](CO)[C@H](O)c1ccc([N+](=O)[O-])cc1)C(Cl)Cl [Chloramphenicol]
pIC50 [2]: 2.89

NC(=O)c1ccc([N+](=O)[O-])cc1Cl [Aklomide]
pIC50 [1]: 3.46

O=C(O)c1cc(/N=N/c2ccc(S(=O)(=O)Nc3ccccn3)cc2)ccc1O [Sulfasalazine]
Peak area as % of total area of all glycoforms, 14,569 (lysozyme): 4.7% | Peak area as % of total area of all glycoforms, 14,551 (lysozyme): 4.7% | Peak area as % of total area of all glycoforms, 14,533 (lysozyme): 2.1% | Peak area as % of total area of all glycoforms, 14,515 (lysozyme): 1.3% | Peak area as % of total area of all glycoforms, 14,419 (lysozyme): 8.2% | Peak area as % of total area of all glycoforms, 14,401 (lysozyme): 2.7% | Peak area as % of total area of all glycoforms, 14,437 (lysozyme): 20.6% | Peak area as % of total area of all glycoforms, 14,496 (lysozyme): 1.5% | Peak area as % of total area of all glycoforms, 14,364 (lysozyme): 2.9% | Peak area as % of total area of all glycoforms, 14,305 (lysozyme): 47.2%

O=C1CN(/N=C/c2ccc(-c3ccc([N+](=O)[O-])cc3)o2)C(O)=N1 [Dantrolene]
pIC50 [1]: 4.00

O=c1c(O)c(-c2cc(O)c(O)c(O)c2)oc2cc(O)cc(O)c12 [Myricetin]
pIC50 [2]: 4.27 | maximum percentage of the inhibition [2]: 64%) | Peak area as % of total area of all glycoforms, 14,569 (lysozyme): 0.0% | Peak area as % of total area of all glycoforms, 14,551 (lysozyme): 0.0% | Peak area as % of total area of all glycoforms, 14,533 (lysozyme): 0.0% | Peak area as % of total area of all glycoforms, 14,515 (lysozyme): 0.0% | Peak area as % of total area of all glycoforms, 14,419 (lysozyme): 1.8% | Peak area as % of total area of all glycoforms, 14,401 (lysozyme): 0.0% | Peak area as % of total area of all glycoforms, 14,437 (lysozyme): 17.7% | Peak area as % of total area of all glycoforms, 14,496 (lysozyme): 0.0% | Peak area as % of total area of all glycoforms, 14,364 (lysozyme): 1.6% | Peak area as % of total area of all glycoforms, 14,305 (lysozyme): 78.9%

CN1CC(O)C2=C/C(=N/NC(N)=O)C(=O)C=C21 (centres unmarked) [Carbazochrome]
pIC50 [1]: 2.46

O=c1cc(CO)occ1O [Kojic acid]
pIC50 [2]: < 2.40

COCCOC(=O)C1=C(C)NC(C)=C(C(=O)OC(C)C)C1c1cccc([N+](=O)[O-])c1 (centres unmarked) [Nimodipine]
pIC50 [2]: < 2.40

CCS(=O)(=O)CCn1c([N+](=O)[O-])cnc1C [Tinidazole]
pIC50 [2]: 3.15

O=C1C[C@@H](c2ccc(O)cc2)Oc2cc(O)cc(O)c21 [Naringenin]
pIC50 [2]: 3.66 | Peak area as % of total area of all glycoforms, 14,569 (lysozyme): 4.9% | Peak area as % of total area of all glycoforms, 14,551 (lysozyme): 3.1% | Peak area as % of total area of all glycoforms, 14,533 (lysozyme): 1.8% | Peak area as % of total area of all glycoforms, 14,515 (lysozyme): 0.0% | Peak area as % of total area of all glycoforms, 14,419 (lysozyme): 7.5% | Peak area as % of total area of all glycoforms, 14,401 (lysozyme): 0.0% | Peak area as % of total area of all glycoforms, 14,437 (lysozyme): 24.4% | Peak area as % of total area of all glycoforms, 14,496 (lysozyme): 0.0% | Peak area as % of total area of all glycoforms, 14,364 (lysozyme): 0.1% | Peak area as % of total area of all glycoforms, 14,305 (lysozyme): 56.8%

CC1=C(/C=C/C(C)=C/C=C/C(C)=C/C=C/C=C(C)/C=C/C=C(C)/C=C/C2=C(C)CCCC2(C)C)C(C)(C)CCC1 [beta-Carotene]
pIC50 [2]: 3.20

Oc1ccc(O)cc1 [Hydroquinone]
pIC50 [2]: 3.60

O=c1c(-c2ccc(O)cc2)coc2cc(O)ccc12 [Daidzein]
pIC50 [2]: < 2.40

COc1cc(/C=C/C(=O)CC(=O)/C=C/c2ccc(O)c(OC)c2)ccc1O [Curcumin]
pIC50 [2]: 2.96

Oc1c(Cl)cc(Cl)c2cccnc12 [Chloroxine]
pIC50 [2]: 2.85

COC(=O)C1=C(C)NC(C)=C(C(=O)OCCN(C)Cc2ccccc2)C1c1cccc([N+](=O)[O-])c1 (centres unmarked) [Nicardipine]
pIC50 [2]: < 2.40

O=S1(=O)OC(c2ccc(O)cc2)(c2ccc(O)cc2)c2ccccc21 [Phenol red]
pIC50 [2]: 2.74

COc1cccc2c1cc([N+](=O)[O-])c1c(C(=O)O)cc3c(c12)OCO3 [Aristolochic acid]
pIC50 [2]: < 2.40

Cc1c(C(N)=O)cc([N+](=O)[O-])cc1[N+](=O)[O-] [Dinitolmide]
pIC50 [2]: 3.47 | Peak area as % of total area of all glycoforms, 14,569 (lysozyme): 4.9% | Peak area as % of total area of all glycoforms, 14,551 (lysozyme): 3.6% | Peak area as % of total area of all glycoforms, 14,533 (lysozyme): 2.6% | Peak area as % of total area of all glycoforms, 14,515 (lysozyme): 1.3% | Peak area as % of total area of all glycoforms, 14,419 (lysozyme): 7.4% | Peak area as % of total area of all glycoforms, 14,401 (lysozyme): 0.0% | Peak area as % of total area of all glycoforms, 14,437 (lysozyme): 22.6% | Peak area as % of total area of all glycoforms, 14,496 (lysozyme): 0.0% | Peak area as % of total area of all glycoforms, 14,364 (lysozyme): 3.0% | Peak area as % of total area of all glycoforms, 14,305 (lysozyme): 51.7%

CC(C)=CCC1=C(O)C(=O)c2ccccc2C1=O [Lapachol]
pIC50 [2]: 3.49

CN(C)c1ccc(O)c2c1C[C@H]1C[C@H]3[C@H](N(C)C)C(O)=C(C(N)=O)C(=O)[C@@]3(O)C(O)=C1C2=O [Minocycline]
pIC50 [2]: 4.34

O=c1cc(-c2ccc(O)c(O)c2)oc2cccc(O)c12 [5,3′,4′-Trihydroxyflavone]
pIC50 [2]: 2.80

Cc1cc(O)c2c(c1)C(=O)c1cc(O)cc(O)c1C2=O [Emodin]
pIC50 [2]: 2.52

CC(C)(C)NCC(O)c1cc(O)cc(O)c1 (centres unmarked) [Terbutaline]
pIC50 [2]: < 2.40

O=[N+]([O-])c1ccc(O)c(Cl)c1 [2-Chloro-4-nitrophenol]
pIC50 [2]: 2.46

Oc1c(Br)cc(Br)c2cccnc12 [Broxyquinoline]
pIC50 [2]: 3.41 | Peak area as % of total area of all glycoforms, 14,569 (lysozyme): 5.7% | Peak area as % of total area of all glycoforms, 14,551 (lysozyme): 4.7% | Peak area as % of total area of all glycoforms, 14,533 (lysozyme): 3.2% | Peak area as % of total area of all glycoforms, 14,515 (lysozyme): 1.7% | Peak area as % of total area of all glycoforms, 14,419 (lysozyme): 7.2% | Peak area as % of total area of all glycoforms, 14,401 (lysozyme): 4.9% | Peak area as % of total area of all glycoforms, 14,437 (lysozyme): 21.0% | Peak area as % of total area of all glycoforms, 14,496 (lysozyme): 1.5% | Peak area as % of total area of all glycoforms, 14,364 (lysozyme): 2.5% | Peak area as % of total area of all glycoforms, 14,305 (lysozyme): 42.2%
